{"source": "paper PMC8484505", "about": "(Cell Reports Medicine, 2021)", "key": {"[1]": {"assay": "Population PK analysis of oral semaglutide in PIONEER 1, 2, 3, 5, 8 and 9", "type": "in vivo, human"}, "[2]": {"conditions": "stated in discussion, no reference given; cited from earlier work"}, "[3]": {"conditions": "SUSTAIN-6, T2D population with high CV risk; cited from earlier work"}}}
{"molecule": "CC[C@H](C)[C@H](NC(=O)[C@H](Cc1ccccc1)NC(=O)[C@H](CCC(=O)O)NC(=O)[C@H](CCCCNC(=O)COCCOCCNC(=O)COCCOCCNC(=O)CC[C@H](NC(=O)CCCCCCCCCCCCCCCCC(=O)O)C(=O)O)NC(=O)[C@H](C)NC(=O)[C@H](C)NC(=O)[C@H](CCC(N)=O)NC(=O)CNC(=O)[C@H](CCC(=O)O)NC(=O)[C@H](CC(C)C)NC(=O)[C@H](Cc1ccc(O)cc1)NC(=O)[C@H](CO)NC(=O)[C@H](CO)NC(=O)[C@@H](NC(=O)[C@H](CC(=O)O)NC(=O)[C@H](CO)NC(=O)[C@@H](NC(=O)[C@H](Cc1ccccc1)NC(=O)[C@@H](NC(=O)CNC(=O)[C@H](CCC(=O)O)NC(=O)C(C)(C)NC(=O)[C@@H](N)Cc1cnc[nH]1)[C@@H](C)O)[C@@H](C)O)C(C)C)C(=O)N[C@@H](C)C(=O)N[C@@H](Cc1c[nH]c2ccccc12)C(=O)N[C@@H](CC(C)C)C(=O)N[C@H](C(=O)N[C@@H](CCCNC(=N)N)C(=O)NCC(=O)N[C@@H](CCCNC(=N)N)C(=O)NCC(=O)O)C(C)C", "note": "[oral semaglutide, semaglutide]", "values": [{"measurement": "lower exposure compared to subjects not reporting GI disease", "setting": "[1]; 34 patients with gastric ulcer, non-significant", "value": 11, "unit": "%"}, {"measurement": "exposure compared to subjects not reporting GI disease", "setting": "[1]; 174 subjects with chronic gastritis", "value": "No effect differences"}, {"measurement": "fraction of subjects with exposure levels considered below the therapeutic range", "setting": "[1]; oral semaglutide 14 mg", "value": 3, "unit": "%"}]}
{"molecule": "semaglutide", "values": [{"measurement": "half-life", "setting": "[2]", "value": "~1", "unit": "week"}]}
{"molecule": "semaglutide [s.c. semaglutide]", "values": [{"measurement": "reduction in the hazard ratio of major adverse cardiovascular events (MACE)", "setting": "[3]", "value": 26, "unit": "%"}]}
